Consider seven compounds from ChEMBL document CHEMBL1201862, “PubChem BioAssay data set” (2004).

Some test systems named below: A549; CAKI-1; CCRF-CEM; HCT-15; M14; MDA-MB-231; MDA-MB-435; MOLT-4; NCI-H460; OVCAR-8; SF-295; SK-MEL-2; SN12C; SNB-75; SW-620; TK-10; U-251; UACC-257; UACC-62; UO-31.
Holding throughout (assay): DTP human tumour cell line panel, 48 h

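Each compound was tested at five concentrations against cells in 96-well plates for 48 hours. Abbreviation: GI50, concentration required for 50% inhibition of growth.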 Calls of active or inactive are those of the source. Rule as the data show it: active = GI50 up to about 1.1 µM and inactive = higher.

A word on the GI50: it is the concentration at which growth is held to half of that of the control. Regarding `Cc1cc(S(=O)(=O)Nc2nnc3c4ccccc4cnn23)c(S)cc1Cl`, the GI50 was 70.5 µM (inactive) in the experiment on A549; > 100 µM (inactive) in the experiment with CAKI-1; > 100 µM (inactive) in the experiment with CCRF-CEM; above 58.6 µM in the experiment on HCT-15; > 100 µM (inactive) in the experiment on M14; > 93.3 µM (inactive) in the experiment with MDA-MB-231. In addition, the GI50 with MDA-MB-435 was > 84.3 µM (inactive); with MOLT-4, > 100 µM (inactive); in the experiment with NCI-H460, 31.3 µM (inactive); in the experiment on OVCAR-8, > 100 µM (inactive); in the experiment with SF-295 it was 47.5 µM (inactive); in the experiment on SK-MEL-2 it was 31.6 µM (inactive). Also, the GI50 was > 100 µM (inactive) in the experiment with SN12C; 69.8 µM (inactive) in the experiment with SNB-75; > 100 µM (inactive) in the experiment on SW-620; > 100 µM (inactive) in the experiment on TK-10; 29.9 µM (inactive) in the experiment on U-251; > 100 µM (inactive) in the experiment on UACC-257. Besides, the GI50 was 46.9 µM (inactive) in the experiment on UACC-62 and > 91.2 µM (inactive) in the experiment on UO-31.

For the compound `Cc1ccc(S(=O)(=O)N/N=C2/CC3CCC4CC2CC34)cc1` (stereo unspecified), the GI50 was > 100 µM (inactive) in the experiment on A549; > 100 µM (inactive) in the experiment on CAKI-1; > 100 µM (inactive) with CCRF-CEM; above 100 µM in the experiment with HCT-15; > 100 µM (inactive) with M14; > 100 µM (inactive) with MDA-MB-231. Also, the GI50 in the experiment with MDA-MB-435, in the experiment on MOLT-4, in the experiment with NCI-H460, in the experiment with OVCAR-8, in the experiment with SF-295 and in the experiment on SK-MEL-2 was > 100 µM (inactive) in each case. In addition, the GI50 in the experiment on SN12C, in the experiment with SNB-75, in the experiment on SW-620, with TK-10, in the experiment with U-251 and with UACC-257 was > 100 µM (inactive) each time. Further, the values for the GI50 in the experiment with UACC-62 and in the experiment with UO-31 were > 100 µM (inactive) and 25.4 µM (inactive), respectively.

`CNC(=O)OCc1nc(SSC(C)(C)C)n(C)c1COC(=O)NC`: the GI50 was 14.2 µM (inactive) in the experiment on A549; 1.82 µM (inactive) in the experiment with CAKI-1; 0.697 µM (active) with CCRF-CEM; 1.84 µM in the experiment on HCT-15; 1.71 µM (inactive) in the experiment on M14; 2.24 µM (inactive) in the experiment on MDA-MB-231. Moreover, the GI50 in the experiment on MDA-MB-435 is 4.83 µM (inactive); in the experiment with MOLT-4 it was 1.28 µM (inactive); in the experiment on NCI-H460, 10.7 µM (inactive); with OVCAR-8, 2.07 µM (inactive); with SF-295, 17.1 µM (inactive); with SK-MEL-2, 8.02 µM (inactive). The GI50 in the experiment with SN12C was 4.42 µM (inactive); with SNB-75 it was 8.57 µM (inactive); in the experiment on SW-620, 1.61 µM (inactive); in the experiment with TK-10, 6.11 µM (inactive); in the experiment on U-251, 12.9 µM (inactive); in the experiment on UACC-257, 2.94 µM (inactive). Also, the GI50 in the experiment on UACC-62 was 1.95 µM (inactive); in the experiment on UO-31, 9.02 µM (inactive).

Take `CC(=O)O[C@H]1C[C@]2(O)[C@@H]3CC[C@@H]4C[C@@H](O)CC[C@]4(C)[C@H]3CC[C@]2(C)[C@H]1C1=CC(=O)OC1`: the GI50 with A549 was < 0.0144 µM (active); in the experiment with CAKI-1, 0.034 µM (active); in the experiment on CCRF-CEM, 0.0375 µM (active); with HCT-15, 0.0843 µM; with M14, 0.172 µM (active); in the experiment on MDA-MB-231 it was 0.404 µM (active). For the same compound, the concentration for 50% growth inhibition (GI50) in the experiment on MDA-MB-435 is 0.179 µM (active); in the experiment on MOLT-4, 0.0201 µM (active); in the experiment with NCI-H460, 0.0289 µM (active); with OVCAR-8, 0.0923 µM (active); in the experiment with SF-295, 0.0391 µM (active); in the experiment on SK-MEL-2, 0.218 µM (active). Also, the GI50 in the experiment with SN12C was 0.037 µM (active); in the experiment with SNB-75 it was 0.153 µM (active); in the experiment with SW-620, 0.125 µM (active); in the experiment on TK-10 it was 0.0796 µM (active); in the experiment on U-251, 0.128 µM (active); with UACC-257, 0.18 µM (active). Moreover, the GI50 with UACC-62 is 0.211 µM (active); in the experiment on UO-31, 0.0632 µM (active).

In the case of `O=[N+]([O-])C(=C(N1CCOCC1)N1CCOCC1)/C(Cl)=C(\Cl)[N+](=O)[O-]`, the GI50 with A549 is 23.1 µM (inactive); with CAKI-1, 1.64 µM (inactive); in the experiment with CCRF-CEM it was 2.65 µM (inactive); with HCT-15, 2.7 µM; in the experiment with M14, 6.35 µM (inactive); in the experiment with MDA-MB-231, 3.85 µM (inactive). Further, the GI50 with MDA-MB-435 is 10.3 µM (inactive); in the experiment on MOLT-4, 17.2 µM (inactive); in the experiment with NCI-H460, 25.2 µM (inactive); in the experiment with SF-295, 18 µM (inactive); in the experiment on SK-MEL-2 it was 15.8 µM (inactive); with SN12C, 2.01 µM (inactive). The GI50 was 19.4 µM (inactive) with SNB-75; 2.23 µM (inactive) in the experiment with SW-620; 1.99 µM (inactive) in the experiment on TK-10; 18.9 µM (inactive) in the experiment on U-251; 5.55 µM (inactive) with UACC-257; 16.6 µM (inactive) with UACC-62. The GI50 in the experiment on UO-31 was 6.71 µM (inactive).

Regarding `O=Cc1cc(C(=O)OCc2ccccc2)n(S(=O)(=O)c2ccccc2)c1`, the GI50 in the experiment on A549 is 25.8 µM (inactive); in the experiment on CAKI-1 it was 29.4 µM (inactive); in the experiment with CCRF-CEM it was 8.07 µM (inactive); with HCT-15, 11.1 µM; with M14, 14.8 µM (inactive); in the experiment with MDA-MB-231, 37.7 µM (inactive). For the same compound, the GI50 in the experiment with MDA-MB-435 was 2.29 µM (inactive); in the experiment with MOLT-4, 23 µM (inactive); in the experiment with NCI-H460, 23.7 µM (inactive); in the experiment on OVCAR-8, 31.9 µM (inactive); in the experiment on SF-295, 14.4 µM (inactive); with SK-MEL-2, 16.8 µM (inactive). Besides, the GI50 in the experiment with SN12C is 26.3 µM (inactive); with SNB-75 it was 23.1 µM (inactive); in the experiment with TK-10, 24 µM (inactive); in the experiment on UACC-257, 24.7 µM (inactive); in the experiment on UACC-62 it was 11 µM (inactive); in the experiment on UO-31 it was 12.6 µM (inactive).

Regarding `CSc1c2c(C)n[nH]c2nn1-c1ccccc1`, the GI50 is > 100 µM (inactive) in the experiment with A549; 21.1 µM (inactive) in the experiment with CAKI-1; 33 µM (inactive) with CCRF-CEM; 37.2 µM with HCT-15; 81.7 µM (inactive) in the experiment on M14; 18.4 µM (inactive) with MDA-MB-231. Moreover, the GI50 was > 100 µM (inactive) with MDA-MB-435; 42.6 µM (inactive) with MOLT-4; > 100 µM (inactive) in the experiment with NCI-H460; 27.4 µM (inactive) with OVCAR-8; > 100 µM (inactive) with SK-MEL-2; > 100 µM (inactive) in the experiment on SN12C. Further, the GI50 is > 100 µM (inactive) in the experiment with SNB-75; 57.1 µM (inactive) in the experiment with SW-620; > 100 µM (inactive) with TK-10; 61.4 µM (inactive) in the experiment with U-251; > 100 µM (inactive) in the experiment on UACC-257; 68.1 µM (inactive) in the experiment on UACC-62. Also, the GI50 in the experiment with UO-31 is 46.7 µM (inactive).
